System: not given
Assay: not given
Conditions: not given

Compared with `CN1CCc2ccc(NC(=O)c3cccc(C(=O)C(C)(C)C)c3)cc2C1.Cl`, `O=C(Nc1ccc2c(c1)CNCC2)c1ccc(Cl)s1.O=C(O)C(F)(F)F` [Example 1, N-(1,2,3,4-Tetrahydroisoquinolin-7-yl)-5-chlorothiophene-2-carboxamide, monotrifluoroacetate] is lower in melting point: 197 to 201 °C for the first, 153 to 155 °C for the second.

System: electrically-induced seizures in mice
Assay: Maximal electroshock seizure (MEST) threshold test, mouse model
Type: in vivo
Conditions: 10 mg/kg oral, suspension in methyl cellulose, one hour post dosing
Protocol: (§1) The maximal electroshock seizure (MEST) threshold test in rodents is particularly sensitive for detecting potential anticonvulsant properties^1. In this model, anticonvulsant agents elevate the threshold to electrically-induced seizures whilst proconvulsants lower the seizure threshold.
Mice (naive male, Charles River, U.K. CD1 strain, 25-30 g) are randomly assigned to groups of 10-20 and dosed orally or intraperitoneally at a dose volume of 10 ml/kg with various doses of compound (0.3-300 mg/kg) or vehicle. Mice are then subjected at 30 or 60 min post dose to a single electroshock (0.1 sec, 50 Hz, sine wave form) administered via corneal electrodes. The mean current and standard error required to induce a tonic seizure in 50% (CC50) of the mice in a particular treatment group is determined by the ‘up and down’ method of Dixon and Mood (1948)^2. Statistical comparisons between vehicle- and drug-treated groups are made using the method of Litchfield and Wilcoxon (1949)^3.
In control animals the CC50 is usually 14-18 mA. […] If a tonic convulsion does occur, then the current is decreased, and so on until all the animals in the group have been tested.
Studies are carried out using a Hugo Sachs Electronik Constant Current Shock Generator with totally variable control of shock level from 0 to 300 mA and steps of 2 mA are usually used.

Compared with `CN1CCc2ccc(NC(=O)c3cccc(Cl)c3)cc2C1` [Example 4, N-(2-Methyl-1,2,3,4-tetrahydroisoquinolin-7-yl)-3-chlorobenzamide], `CN1CCc2ccc(NC(=O)c3ccc(C(C)(C)C)cc3)cc2C1` [Example 5, N-(2-Methyl-1,2,3,4-tetrahydroisoquinolin-7-yl)-4-t-butylbenzamide] is higher in “increase in seizure threshold” value: 24% for the first, 36% for the second.

Compared with `CC(C)Oc1ccc(C(=O)Nc2ccc3c(c2)CN(C)CC3)cc1` [Example 6, N-(2-Methyl-1,2,3,4-tetrahydroisoquinolin-7-yl)-4-iso-propoxybenzamide], `CN1CCc2ccc(NC(=O)c3ccc(Oc4ccccc4)cc3)cc2C1` [Example 7, N-(2-Methyl-1,2,3,4-tetrahydroisoquinolin-7-yl)-4-phenoxybenzamide] is lower in “increase in seizure threshold” value: 90% for the first, 23% for the second.

System: maximal (tonic hindlimb extension) electroshock seizures in male rats
Assay: Maximal electroshock seizure (MEST) threshold test, rat model
Type: in vivo
Conditions: 2 mg/kg p.o. at 2 h, suspended in 1% methyl cellulose
Protocol: as §1
The threshold for maximal (tonic hindlimb extension) electroshock seizures in male rats (Sprague Dawley, 80-150 g, 6 weeks old) was determined by a Hugo Sachs Electronik stimulator which delivered a constant current (0.3 sec duration, from 1-300 mA in steps of 5-20 mA). The procedure is similar to that outlined above for mouse and full details are as published by Upton et al,.^4
The percentage increase or decrease in CC50 for each group compared to the control is calculated.
Drugs are suspended in 1% methyl cellulose.

Going from `CC(C)Oc1ccc(C(=O)Nc2ccc3c(c2)CN(C)CC3)cc1Cl` [Example 48, N-(2-Methyl-1,2,3,4-tetrahydroisoquinolin-7-yl)-3-chloro-4-iso-propoxybenzamide] to `CCOc1ccc(C(=O)Nc2ccc3c(c2)CN(C)CC3)cc1Br` [Example 49, N-(2-Methyl-1,2,3,4-tetrahydroisoquinolin-7-yl)-3-bromo-4-ethoxybenzamide], the “increase in CC50 (seizure threshold) compared to control” value falls from 389% to 325%.

Compared with `COc1ccc(C(=O)Nc2ccc3c(c2)CN(C)CC3)cc1C(F)(F)F` [Example 51, N-(2-Methyl-1,2,3,4-tetrahydroisoquinolin-7-yl)-4-methoxy-3-trifluoromethylbenzamide], `CC(C)c1ccc(C(=O)Nc2ccc3c(c2)CN(C)CC3)cc1C#N.Cl` [Example 67, N-(2-Methyl-1,2,3,4-tetrahydroisoquinolin-7-yl)-3-cyano-4-iso-propylbenzamide, hydrochloride] is lower in “increase in CC50 (seizure threshold) compared to control” value: 545% for the first, 303% for the second.

— patent US6841560B2, “Substituted isoquinoline derivatives and their use as anticonvulsants” (SmithKline Beecham p.l.c., priority 1997, dated 2005)
